Measurements as given in patent US20250179061A1 (SIRONAX LTD., priority 2022, published 2025).

The molecules below were run on HT-29 cells (assay: HT-29 necroptosis cell viability assay (TNF-α/SMAC mimetic/zVAD-FMK, CellTiter-Glo)). Settings: Homo sapiens, HT-29, HT-29 necroptosis cell viability, IC50 class symbols; read-out: Activity.
Assay type: cell-based
Method in brief: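 HT-29 cells (~5,000/well, overnight) in FBS-free McCoy's 5A with TNF-α 10 ng/ml, SMAC mimetic 6 μM and zVAD-FMK 10 μM plus 10-point 1:3 compound titration, 20 h at 37°C. ATP measured by CellTiter-Glo luminescence; IC50 as geometric mean of duplicates.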

Row | Structure (SMILES) | IC50
1 | Cc1nc(N2CC(C)(N)C2)sc1Oc1ccc(-n2ncn(Cc3c(F)cccc3F)c2=O)cc1 [Example 390, 2-(4-((2-(3-amino-3-methylazetidin-1-yl)-4-methylthiazol-5-yl)oxy)phenyl)-4-(2,6-difluorobenzyl)-2,4-dihydro-3H-1,2,4-triazol-3-one] | < 100 nM
2 | N#CC12CC(Nc3nccc(Oc4ccc(-n5ncn(Cc6c(F)cccc6F)c5=O)cc4Cl)c3F)(C1)C2 [Example 391, 3-((4-(2-chloro-4-(4-(2,6-difluorobenzyl)-5-oxo-4,5-dihydro-1H-1,2,4-triazol-1-yl)phenoxy)-3-fluoropyridin-2-yl)amino)bicyclo[1.1.1]pentane-1-carbonitrile] | 100 to 1000 nM
3 | N#CC12CC(Nc3cc(Oc4ccc(-n5ncn(Cc6c(F)cccc6F)c5=O)cc4Cl)c(F)cn3)(C1)C2 [Example 392, 3-((4-(2-chloro-4-(4-(2,6-difluorobenzyl)-5-oxo-4,5-dihydro-1H-1,2,4-triazol-1-yl)phenoxy)-5-fluoropyridin-2-yl)amino)bicyclo[1.1.1]pentane-1-carbonitrile] | < 100 nM
4 | CC1(C#N)CCN(c2cc(Oc3ccc(-n4ncn(Cc5c(F)cccc5F)c4=O)cc3F)c(Cl)cn2)C1 (centres unmarked) [Example 393, 1-(5-chloro-4-(4-(4-(2,6-difluorobenzyl)-5-oxo-4,5-dihydro-1H-1,2,4-triazol-1-yl)-2-fluorophenoxy)pyridin-2-yl)-3-methylpyrrolidine-3-carbonitrile] | < 100 nM
5 | CC1(C#N)CCN(c2cc(Oc3ccc(-n4ncn(Cc5c(F)cccc5F)c4=O)cc3F)c(F)cn2)C1 (centres unmarked) [Example 394, 1-(4-(4-(4-(2,6-difluorobenzyl)-5-oxo-4,5-dihydro-1H-1,2,4-triazol-1-yl)-2-fluorophenoxy)-5-fluoropyridin-2-yl)-3-methylpyrrolidine-3-carbonitrile] | < 100 nM
6 | N#Cc1cnc(Cl)cc1Oc1ccc(-n2ncn(Cc3c(F)cccc3F)c2=O)cc1F [Example 395, 6-chloro-4-(4-(4-(2,6-difluorobenzyl)-5-oxo-4,5-dihydro-1H-1,2,4-triazol-1-yl)-2-fluorophenoxy)nicotinonitrile] | 1000 to 10000 nM
7 | CC1(N)CN(c2cc(Oc3ccc(-n4ncn(Cc5c(F)cccc5F)c4=O)cc3F)c(C#N)cn2)C1 [Example 396, 6-(3-amino-3-methylazetidin-1-yl)-4-(4-(4-(2,6-difluorobenzyl)-5-oxo-4,5-dihydro-1H-1,2,4-triazol-1-yl)-2-fluorophenoxy)nicotinonitrile] | 100 to 1000 nM
8 | Cc1cnc(N2CCC(C)(C#N)C2)cc1Oc1ccc(-n2ncn(Cc3c(F)cccc3F)c2=O)cc1Cl (centres unmarked) [Example 397, 1-(4-(2-chloro-4-(4-(2,6-difluorobenzyl)-5-oxo-4,5-dihydro-1H-1,2,4-triazol-1-yl)phenoxy)-5-methylpyridin-2-yl)-3-methylpyrrolidine-3-carbonitrile] | < 100 nM
9 | Cc1cnc(N2CC(C)(C#N)C2)cc1Oc1ccc(-n2ncn(Cc3c(F)cccc3F)c2=O)cc1Cl [Example 398, 1-(4-(2-chloro-4-(4-(2,6-difluorobenzyl)-5-oxo-4,5-dihydro-1H-1,2,4-triazol-1-yl)phenoxy)-5-methylpyridin-2-yl)-3-methylazetidine-3-carbonitrile] | < 100 nM
10 | CC1(CN)CN(c2cc(Oc3ccc(-n4ncn(Cc5c(F)cccc5F)c4=O)cc3F)c(F)cn2)C1 [Example 399, 2-(4-((2-(3-(aminomethyl)-3-methylazetidin-1-yl)-5-fluoropyridin-4-yl)oxy)-3-fluorophenyl)-4-(2,6-difluorobenzyl)-2,4-dihydro-3H-1,2,4-triazol-3-one] | 100 to 1000 nM
11 | N#C[C@@H]1CCN(c2cc(Oc3ccc(-n4ncn(Cc5c(F)cccc5F)c4=O)cc3)ccn2)C1 [Example 400, (R)-1-(4-(4-(4-(2,6-difluorobenzyl)-5-oxo-4,5-dihydro-1H-1,2,4-triazol-1-yl)phenoxy)pyridin-2-yl)pyrrolidine-3-carbonitrile] | < 100 nM
